Each block holds one molecule with its values, some of them ahead of it.
Columns and labels:
[1] = target: T1, Homeodomain-interacting protein kinase 4 (Homo sapiens) (UniProt Q8NE63); assay: Selectivity interaction (KinomeScan (DiscoverX)) EUB0000666a HIPK4; conditions: at 10 µM
T1 sequence (whole entry): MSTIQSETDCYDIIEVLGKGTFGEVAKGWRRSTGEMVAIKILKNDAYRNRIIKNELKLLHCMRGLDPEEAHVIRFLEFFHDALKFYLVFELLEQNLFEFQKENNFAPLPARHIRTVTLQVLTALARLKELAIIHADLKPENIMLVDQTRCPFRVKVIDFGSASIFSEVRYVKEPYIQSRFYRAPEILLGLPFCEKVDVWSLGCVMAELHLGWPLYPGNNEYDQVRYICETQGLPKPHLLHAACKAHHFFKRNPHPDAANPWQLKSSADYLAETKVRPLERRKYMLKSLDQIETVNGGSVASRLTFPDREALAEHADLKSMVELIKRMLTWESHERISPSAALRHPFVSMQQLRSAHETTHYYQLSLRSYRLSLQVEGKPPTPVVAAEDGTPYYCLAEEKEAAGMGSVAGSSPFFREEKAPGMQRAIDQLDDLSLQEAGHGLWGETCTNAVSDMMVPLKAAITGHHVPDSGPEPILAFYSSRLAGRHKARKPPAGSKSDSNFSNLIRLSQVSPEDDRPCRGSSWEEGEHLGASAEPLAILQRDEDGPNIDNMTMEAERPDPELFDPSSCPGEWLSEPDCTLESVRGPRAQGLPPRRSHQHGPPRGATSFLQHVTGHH

[2] = Selectivity interaction (Ex-vivo activation of CD20+ B cells in cynomolgus (anti-IgM/IL-4 stimulated pAKT)) EUB0000877a PIK3CD
[3] = target: T2, Serine/threonine-protein kinase Sgk1 (Homo sapiens) (UniProt O00141); assay: Selectivity interaction (SelectScreen profiling (Invitrogen)) EUB0000607a SGK1; conditions: at 2 µM
T2 sequence (whole entry): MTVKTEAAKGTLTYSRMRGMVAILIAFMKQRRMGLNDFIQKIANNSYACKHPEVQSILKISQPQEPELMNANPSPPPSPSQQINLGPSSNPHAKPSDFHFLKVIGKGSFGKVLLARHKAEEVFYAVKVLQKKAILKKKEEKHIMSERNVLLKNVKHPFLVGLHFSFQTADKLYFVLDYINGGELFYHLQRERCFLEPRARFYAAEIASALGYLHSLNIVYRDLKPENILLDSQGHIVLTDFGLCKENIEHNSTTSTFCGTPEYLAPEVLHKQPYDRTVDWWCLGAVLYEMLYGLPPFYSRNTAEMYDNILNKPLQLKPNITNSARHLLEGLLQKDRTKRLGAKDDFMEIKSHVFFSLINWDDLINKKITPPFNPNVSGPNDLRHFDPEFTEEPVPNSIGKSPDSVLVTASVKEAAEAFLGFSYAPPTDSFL

[4] = target: Mitogen-activated protein kinase 14 (Homo sapiens, UniProt Q16539); assay: Selectivity interaction (Upstate Kinase Profiler service (Millipore)) EUB0000056c MAPK14; conditions: at 1 µM
Chain of Mitogen-activated protein kinase 14 (Q16539 whole entry): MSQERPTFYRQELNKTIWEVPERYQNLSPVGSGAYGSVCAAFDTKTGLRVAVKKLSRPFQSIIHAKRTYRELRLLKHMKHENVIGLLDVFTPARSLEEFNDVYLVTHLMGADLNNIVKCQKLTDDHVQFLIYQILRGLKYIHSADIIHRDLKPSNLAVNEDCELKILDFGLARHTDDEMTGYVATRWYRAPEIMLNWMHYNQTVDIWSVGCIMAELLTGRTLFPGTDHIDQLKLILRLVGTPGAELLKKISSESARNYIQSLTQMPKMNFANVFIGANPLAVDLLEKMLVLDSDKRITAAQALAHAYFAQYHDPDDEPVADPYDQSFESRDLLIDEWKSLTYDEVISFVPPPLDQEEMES

[5] = target: Non-receptor tyrosine-protein kinase TYK2 (Homo sapiens, UniProt P29597); conditions: at 10 µM
Chain of Non-receptor tyrosine-protein kinase TYK2 (P29597 whole entry, the tested form may be a part): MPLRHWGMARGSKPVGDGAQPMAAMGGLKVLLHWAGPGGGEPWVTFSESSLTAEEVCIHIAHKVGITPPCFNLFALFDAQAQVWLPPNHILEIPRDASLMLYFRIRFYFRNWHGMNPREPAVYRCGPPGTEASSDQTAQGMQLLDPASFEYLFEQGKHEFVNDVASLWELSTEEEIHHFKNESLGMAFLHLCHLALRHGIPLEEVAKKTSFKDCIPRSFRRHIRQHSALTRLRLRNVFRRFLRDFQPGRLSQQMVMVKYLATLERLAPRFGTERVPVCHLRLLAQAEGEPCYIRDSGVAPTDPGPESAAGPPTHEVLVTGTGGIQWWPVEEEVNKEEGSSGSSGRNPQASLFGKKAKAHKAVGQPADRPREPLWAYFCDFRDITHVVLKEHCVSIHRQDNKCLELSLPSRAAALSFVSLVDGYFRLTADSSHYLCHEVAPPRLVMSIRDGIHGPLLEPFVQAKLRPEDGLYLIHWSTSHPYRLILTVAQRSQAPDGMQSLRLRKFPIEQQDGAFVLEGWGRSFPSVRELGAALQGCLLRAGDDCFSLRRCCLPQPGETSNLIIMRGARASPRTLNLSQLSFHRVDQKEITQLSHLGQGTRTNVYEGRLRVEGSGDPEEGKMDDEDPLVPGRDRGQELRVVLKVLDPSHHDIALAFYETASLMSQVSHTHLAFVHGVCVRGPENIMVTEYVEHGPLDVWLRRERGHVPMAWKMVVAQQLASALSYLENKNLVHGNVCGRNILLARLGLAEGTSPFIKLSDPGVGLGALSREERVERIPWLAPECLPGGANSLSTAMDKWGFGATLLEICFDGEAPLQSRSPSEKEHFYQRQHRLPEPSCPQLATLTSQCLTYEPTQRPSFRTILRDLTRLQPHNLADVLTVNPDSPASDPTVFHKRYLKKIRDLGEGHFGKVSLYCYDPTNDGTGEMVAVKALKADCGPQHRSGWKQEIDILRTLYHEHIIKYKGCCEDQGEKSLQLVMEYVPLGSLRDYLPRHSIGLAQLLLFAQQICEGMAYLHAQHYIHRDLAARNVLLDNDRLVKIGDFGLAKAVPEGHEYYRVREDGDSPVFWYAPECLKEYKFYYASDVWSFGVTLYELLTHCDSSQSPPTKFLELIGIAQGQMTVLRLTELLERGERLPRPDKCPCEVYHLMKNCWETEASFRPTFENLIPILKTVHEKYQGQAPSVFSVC

[6] = target: T3, Discoidin domain-containing receptor 2 (Homo sapiens) (UniProt Q16832); assay: Selectivity interaction (Kinase panel (Invitrogen)) EUB0000639a DDR2; conditions: at 200 nM
T3 sequence (whole entry): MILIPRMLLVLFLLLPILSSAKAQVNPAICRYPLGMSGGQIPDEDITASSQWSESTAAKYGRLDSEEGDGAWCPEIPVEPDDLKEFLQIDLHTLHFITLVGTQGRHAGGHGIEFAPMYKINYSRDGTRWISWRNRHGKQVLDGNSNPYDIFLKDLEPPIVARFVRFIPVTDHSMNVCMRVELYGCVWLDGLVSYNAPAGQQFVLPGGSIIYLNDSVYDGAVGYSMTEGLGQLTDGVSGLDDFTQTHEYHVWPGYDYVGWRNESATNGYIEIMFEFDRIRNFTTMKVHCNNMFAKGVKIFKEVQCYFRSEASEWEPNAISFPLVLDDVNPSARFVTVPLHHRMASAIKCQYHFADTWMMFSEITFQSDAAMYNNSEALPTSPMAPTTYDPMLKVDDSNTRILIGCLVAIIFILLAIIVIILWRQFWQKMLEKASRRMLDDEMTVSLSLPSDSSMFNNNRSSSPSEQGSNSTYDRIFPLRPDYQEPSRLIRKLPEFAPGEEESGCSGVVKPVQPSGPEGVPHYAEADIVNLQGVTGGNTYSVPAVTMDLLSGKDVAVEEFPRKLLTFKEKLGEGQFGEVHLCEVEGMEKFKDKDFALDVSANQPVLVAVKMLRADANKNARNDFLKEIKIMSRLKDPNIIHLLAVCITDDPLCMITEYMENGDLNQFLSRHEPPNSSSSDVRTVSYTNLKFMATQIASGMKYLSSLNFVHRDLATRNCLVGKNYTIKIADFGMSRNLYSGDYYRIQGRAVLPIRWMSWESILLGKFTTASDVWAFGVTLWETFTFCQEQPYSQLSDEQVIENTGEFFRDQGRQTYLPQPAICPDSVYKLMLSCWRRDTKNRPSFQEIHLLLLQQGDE

[7] = target: Mitogen-activated protein kinase 1 (Homo sapiens, UniProt P28482); assay: Selectivity interaction (ActivX KiNativ screen (ex vivo kinase selectivity in human PBMCs)) EUB0001619a MAPK1; format: cell-based; conditions: PBMC, at 1 µM
Chain of Mitogen-activated protein kinase 1 (P28482 whole entry): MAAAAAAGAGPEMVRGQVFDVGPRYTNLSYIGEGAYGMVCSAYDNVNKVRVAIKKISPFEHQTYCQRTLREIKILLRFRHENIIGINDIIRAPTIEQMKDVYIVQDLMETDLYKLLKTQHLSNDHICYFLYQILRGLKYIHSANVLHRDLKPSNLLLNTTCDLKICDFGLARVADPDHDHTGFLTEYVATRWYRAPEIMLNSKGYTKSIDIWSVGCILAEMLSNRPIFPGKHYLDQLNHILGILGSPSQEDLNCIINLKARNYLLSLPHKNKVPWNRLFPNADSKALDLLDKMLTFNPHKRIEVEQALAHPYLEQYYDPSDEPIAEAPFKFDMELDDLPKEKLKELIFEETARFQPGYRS

[8] = target: T4, Tyrosine-protein kinase Tec (Homo sapiens) (UniProt P42680); assay: Selectivity interaction (KinomeScan (DiscoverX)) EUB0001619a TEC; conditions: at 1 µM
T4 sequence (whole entry): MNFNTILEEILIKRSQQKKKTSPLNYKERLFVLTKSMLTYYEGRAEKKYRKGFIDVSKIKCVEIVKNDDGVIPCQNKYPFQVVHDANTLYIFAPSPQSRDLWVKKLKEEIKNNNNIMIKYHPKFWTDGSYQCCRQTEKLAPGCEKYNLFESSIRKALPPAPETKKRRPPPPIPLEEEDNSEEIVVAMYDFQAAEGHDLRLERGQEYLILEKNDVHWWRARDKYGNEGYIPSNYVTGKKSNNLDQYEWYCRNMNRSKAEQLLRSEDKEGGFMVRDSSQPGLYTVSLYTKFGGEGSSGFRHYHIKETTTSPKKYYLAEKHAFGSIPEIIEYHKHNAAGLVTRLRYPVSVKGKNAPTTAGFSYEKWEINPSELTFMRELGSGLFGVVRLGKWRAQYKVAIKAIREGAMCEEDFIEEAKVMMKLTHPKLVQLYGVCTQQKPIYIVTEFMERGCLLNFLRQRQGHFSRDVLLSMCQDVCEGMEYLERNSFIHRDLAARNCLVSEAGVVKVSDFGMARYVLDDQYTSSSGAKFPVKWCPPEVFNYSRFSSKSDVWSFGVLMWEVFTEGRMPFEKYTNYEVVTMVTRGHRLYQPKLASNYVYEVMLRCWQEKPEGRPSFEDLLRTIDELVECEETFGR

Compound: O=C(NOC[C@H](O)CO)c1ccc(F)c(F)c1Nc1ccc(I)cc1F
% of control [1]: 100%

Compound: CNC(=O)Nc1ccc(-c2nc(N3CC4CCC(C3)O4)c3cnn(C4CCC5(CC4)OCCO5)c3n2)cc1
% of inhibition [3]: -2%

Compound: CCN(CC)CCCCNc1ncc2cc(-c3cc(OC)cc(OC)c3)c(NC(=O)NC(C)(C)C)nc2n1
% of control [5]: 100%

Compound: N#Cc1cccc(-c2c[nH]c3ncnc(N4CCOCC4)c23)c1
% of inhibition [7]: 3% | % of control [8]: 100%

The remaining lines, values ahead:

EC50 [2]: 140 nM
Compound: CCC(=O)N1CC[C@H](Nc2ncnc3c2CN(c2cnc(OC)c(C(F)(F)F)c2)CC3)C1 [LENIOLISIB]

% of inhibition [4]: 0%
Compound: Cc1ccc(-c2ccc3c(ccc4sc5c(c43)NC[C@@H](C)NC5=O)n2)cn1

% of inhibition [6]: -2.26%
Compound: CC[C@@H]1[C@H](F)C(=O)N[C@@H]1COc1nccc2cc(C(N)=O)c(OC)cc12 [ZIMLOVISERTIB]

— ChEMBL document CHEMBL5465560, “Selectivity Literature for EUbOPEN Chemogenomic Library” (2024)
